We go through ten molecules from US20260015350A1, “AZAQUINAZOLINE PAN-KRAS INHIBITORS” (Mirati Therapeutics, Inc., priority 2022, published 2026).

One experiment deals with T1, KRas^G12D (Homo sapiens, UniProt P01116, G12D).
T1 construct: Biotinylated KRas (corresponding to amino acids 1-169, produced at Accelegan Inc.); biotin (biotinylated); purchased Accelegan Inc
Briefly: KRas binding assay (TR-FRET tracer displacement), KRas G12D.

In a further experiment the target is T2, KRas^G12R (Homo sapiens, UniProt P01116, G12R).
T2 construct: Biotinylated KRas (corresponding to amino acids 1-169, produced at Accelegan Inc.); biotin (biotinylated); purchased Accelegan Inc
T2 sequence (P01116 1-169 isoform P01116-2 G12R): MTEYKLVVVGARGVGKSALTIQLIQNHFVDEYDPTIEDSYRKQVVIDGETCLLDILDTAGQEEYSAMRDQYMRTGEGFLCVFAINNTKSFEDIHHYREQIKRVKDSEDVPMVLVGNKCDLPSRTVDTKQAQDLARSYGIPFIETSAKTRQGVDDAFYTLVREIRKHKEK
Briefly: KRas binding assay (TR-FRET tracer displacement), KRas G12R.

A further experiment deals with T3, KRas^G12V (Homo sapiens, UniProt P01116, G12V).
T3 construct: Biotinylated KRas (corresponding to amino acids 1-169, produced at Accelegan Inc.); biotin (biotinylated); purchased Accelegan Inc
T3 sequence (P01116 1-169 isoform P01116-2 G12V): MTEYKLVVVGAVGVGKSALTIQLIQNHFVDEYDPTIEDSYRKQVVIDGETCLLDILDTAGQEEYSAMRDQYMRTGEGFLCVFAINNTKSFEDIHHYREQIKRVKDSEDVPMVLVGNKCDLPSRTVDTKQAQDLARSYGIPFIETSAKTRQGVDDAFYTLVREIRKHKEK
Briefly: KRas binding assay (TR-FRET tracer displacement), KRas G12V.

Experiment [1] has as its system KRas-mediated phosphorylation of ERK in AsPC-1 cells. Briefly: Inhibition of KRas-mediated phosphorylation of ERK (Cisbio HTRF pERK), AsPC-1 cells. It is filed as cell-based. The note with it: Homo sapiens; for IC50: ASPC1, AsPC-1 cells, HTRF pERK. An outline of the steps:
(§1)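 Signal read by HTRF (d2/Cryptate antibody pair, 2 hr room-temperature incubation on lysate). Cells: 6,000 per well, 3 hr compound exposure. Titration: 10 uM highest, 3-fold, 10 points.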

In experiment [2] the test system is KRas-mediated phosphorylation of ERK in H727 cells. Briefly: Inhibition of KRas-mediated phosphorylation of ERK (Cisbio HTRF pERK), H727 cells. The format is cell-based. Particulars: Homo sapiens; for IC50: NCI-H727, H727 cells, HTRF pERK. The essentials: as §1

T1 sequence (P01116 1-169 isoform P01116-2 G12D): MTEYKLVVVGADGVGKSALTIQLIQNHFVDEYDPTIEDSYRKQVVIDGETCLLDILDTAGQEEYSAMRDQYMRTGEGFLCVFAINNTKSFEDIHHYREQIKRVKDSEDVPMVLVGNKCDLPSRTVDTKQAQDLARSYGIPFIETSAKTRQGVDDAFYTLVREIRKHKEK

For `CCc1c(F)ccc2cc(O)cc(-c3ncc4c(NCc5cc(C(=O)N(C)C)nn5C5CCC5O)nc(OC[C@@]56CCCN5C[C@H](F)C6)nc4c3F)c12` (stereo partly drawn) [Example 677, 5-(((7-(8-ethyl-7-fluoro-3-hydroxynaphthalen-1-yl)-8-fluoro-2-(((2R,7aS)-2-fluorotetrahydro-1H-pyrrolizin-7a(5H)-yl)methoxy)pyrido[4,3-d]pyrimidin-4-yl)amino)methyl)-1-(2-hydroxycyclobutyl)-N,N-dimethyl-1H-pyrazole-3-carboxamide], the concentration for half-maximal inhibition (IC50) on KRas^G12D is 13 nM; on KRas^G12R it was less than 2 nM; on KRas^G12V, less than 2 nM; in experiment [2], 4580 nM. Moreover, the inhibition at 0.1 µM in experiment [1] (ASPC1, 3 h, single point, 100 nM compound, 3 hrs, AsPC-1 cells) was -8%; in experiment [2] (NCI-H727, 3 h, single point, 100 nM compound, 3 hrs, H727 cells) it was 2%.

Regarding `CCc1c(F)ccc2cc(O)cc(-c3ncc4c(NCc5cc(C(=O)N(C)C)nn5[C@H]5C[C@@H](O)C5)nc(OC[C@@]56CCCN5C[C@H](F)C6)nc4c3F)c12` [Example 678, 5-(((7-(8-ethyl-7-fluoro-3-hydroxynaphthalen-1-yl)-8-fluoro-2-(((2R,7aS)-2-fluorohexahydro-1H-pyrrolizin-7a-yl)methoxy)pyrido[4,3-d]pyrimidin-4-yl)amino)methyl)-1-(cis-3-hydroxycyclobutyl)-N,N-dimethyl-1H-pyrazole-3-carboxamide], the half-maximal inhibitory concentration (IC50) on KRas^G12D was 89 nM; at KRas^G12R, 16 nM; at KRas^G12V, 11 nM; in experiment [1] it was more than 10000 nM; in experiment [2], more than 10000 nM.

As for `CCc1c(F)ccc2cc(O)cc(-c3ncc4c(N5CCCn6nc(C(=O)N(C)CCO)cc6C5)nc(OC[C@@]56CCCN5C[C@H](F)C6)nc4c3F)c12` [Example 679, 5-(7-(8-ethyl-7-fluoro-3-hydroxynaphthalen-1-yl)-8-fluoro-2-(((2R,7aS)-2-fluorohexahydro-1H-pyrrolizin-7a-yl)methoxy)pyrido[4,3-d]pyrimidin-4-yl)-N-(2-hydroxyethyl)-N-methyl-5,6,7,8-tetrahydro-4H-pyrazolo[1,5-a][1,4]diazepine-2-carboxamide], the concentration for half-maximal inhibition (IC50) at KRas^G12D was 124 nM; on KRas^G12R it was 190 nM; at KRas^G12V, 105 nM; in experiment [1], more than 10000 nM; in experiment [2], 9490 nM.

For `CCc1c(F)ccc2cc(O)cc(-c3ncc4c(NCc5cc(C(=O)N(C)C)n([C@H]6C[C@H](O)C6)n5)nc(OC[C@@]56CCCN5C[C@H](F)C6)nc4c3F)c12` [Example 680, 3-(((7-(8-ethyl-7-fluoro-3-hydroxynaphthalen-1-yl)-8-fluoro-2-(((2R,7aS)-2-fluorohexahydro-1H-pyrrolizin-7a-yl)methoxy)pyrido[4,3-d]pyrimidin-4-yl)amino)methyl)-1-(trans-3-hydroxycyclobutyl)-N,N-dimethyl-1H-pyrazole-5-carboxamide], the IC50 is 473 nM on KRas^G12D; 234 nM on KRas^G12R; 43 nM at KRas^G12V; more than 10000 nM in experiment [1]; more than 10000 nM in experiment [2].

`CCc1c(F)ccc2cc(O)cc(-c3ncc4c(NCc5cc(C(=O)N(C)C)n([C@H]6C[C@@H](O)C6)n5)nc(OC[C@@]56CCCN5C[C@H](F)C6)nc4c3F)c12` [Example 681, 3-(((7-(8-ethyl-7-fluoro-3-hydroxynaphthalen-1-yl)-8-fluoro-2-(((2R,7aS)-2-fluorohexahydro-1H-pyrrolizin-7a-yl)methoxy)pyrido[4,3-d]pyrimidin-4-yl)amino)methyl)-1-(cis-3-hydroxycyclobutyl)-N,N-dimethyl-1H-pyrazole-5-carboxamide]: the half-maximal inhibitory concentration (IC50) was 497 nM on KRas^G12D; 167 nM on KRas^G12R; 51 nM on KRas^G12V; more than 10000 nM in experiment [1]; more than 10000 nM in experiment [2].

With `CCc1c(F)ccc2cc(O)cc(-c3ncc4c(NCc5cc(C(=O)N(C)C)nn5[C@H]5C[C@H](O)C5)nc(OC[C@@]56CCCN5C[C@H](F)C6)nc4c3F)c12` [Example 682, 5-(((7-(8-ethyl-7-fluoro-3-hydroxynaphthalen-1-yl)-8-fluoro-2-(((2R,7aS)-2-fluorotetrahydro-1H-pyrrolizin-7a(5H)-yl)methoxy)pyrido[4,3-d]pyrimidin-4-yl)amino)methyl)-1-(trans-3-hydroxycyclobutyl)-N,N-dimethyl-1H-pyrazole-3-carboxamide], the IC50 was 710 nM on KRas^G12D; 541 nM at KRas^G12R; 192 nM at KRas^G12V; more than 10000 nM in experiment [1]; more than 10000 nM in experiment [2].

Take `CCc1c(F)ccc2cc(O)cc(-c3ncc4c(NCc5cc(C(=O)N(C)C)nn5C[C@H]5C[C@H](O)C5)nc(OC[C@@]56CCCN5C[C@H](F)C6)nc4c3F)c12` [Example 686, 5-(((7-(8-ethyl-7-fluoro-3-hydroxynaphthalen-1-yl)-8-fluoro-2-(((2R,7aS)-2-fluorohexahydro-1H-pyrrolizin-7a-yl)methoxy)pyrido[4,3-d]pyrimidin-4-yl)amino)methyl)-1-((trans-3-hydroxycyclobutyl)methyl)-N,N-dimethyl-1H-pyrazole-3-carboxamide]: the IC50 on KRas^G12D was 21 nM; on KRas^G12R it was 5 nM; at KRas^G12V it was 6 nM; in experiment [1], more than 10000 nM; in experiment [2], 8840 nM.

Consider `CCc1c(F)ccc2cc(O)cc(-c3ncc4c(NCc5cc(C(=O)N(C)C)nn5C[C@H]5C[C@@H](O)C5)nc(OC[C@@]56CCCN5C[C@H](F)C6)nc4c3F)c12` [Example 687, 5-(((7-(8-ethyl-7-fluoro-3-hydroxynaphthalen-1-yl)-8-fluoro-2-(((2R,7aS)-2-fluorohexahydro-1H-pyrrolizin-7a-yl)methoxy)pyrido[4,3-d]pyrimidin-4-yl)amino)methyl)-1-((cis-3-hydroxycyclobutyl)methyl)-N,N-dimethyl-1H-pyrazole-3-carboxamide], for which the IC50 on KRas^G12D is 405 nM; on KRas^G12R it was 175 nM; on KRas^G12V, 145 nM; in experiment [1], more than 10000 nM; in experiment [2], more than 10000 nM.

Turning to `CCc1c(F)ccc2cc(O)cc(-c3ncc4c(NCc5cc(C(=O)N(C)C)n(CC6CC(O)C6)n5)nc(OC[C@@]56CCCN5C[C@H](F)C6)nc4c3F)c12` (stereo partly drawn) [Example 688, 3-(((7-(8-ethyl-7-fluoro-3-hydroxynaphthalen-1-yl)-8-fluoro-2-(((2R,7aS)-2-fluorohexahydro-1H-pyrrolizin-7a-yl)methoxy)pyrido[4,3-d]pyrimidin-4-yl)amino)methyl)-1-((3-hydroxycyclobutyl)methyl)-N,N-dimethyl-1H-pyrazole-5-carboxamide], the IC50 was 357 nM at KRas^G12D; 160 nM on KRas^G12R; 42 nM on KRas^G12V; more than 10000 nM in experiment [1]; more than 10000 nM in experiment [2].

Consider `CCc1c(F)ccc2cc(O)cc(-c3ncc4c(N5CCC(N6C(=O)OC7CN(C(C)=O)CC76)CC5)nc(OC[C@@]56CCCN5C[C@H](F)C6)nc4c3F)c12` (stereo partly drawn) [Example 689, 5-acetyl-3-(1-(7-(8-ethyl-7-fluoro-3-hydroxynaphthalen-1-yl)-8-fluoro-2-(((2R,7aS)-2-fluorotetrahydro-1H-pyrrolizin-7a(5H)-yl)methoxy)pyrido[4,3-d]pyrimidin-4-yl)piperidin-4-yl)hexahydro-2H-pyrrolo[3,4-d]oxazol-2-one], for which the IC50 at KRas^G12D was 1650 nM; at KRas^G12R it was 349 nM; at KRas^G12V, 98 nM; in experiment [1], more than 10000 nM; in experiment [2], more than 10000 nM.
